According to US20230172930A1, “USE OF COMPLEMENT FACTOR D INHIBITORS ALONE OR IN COMBINATION WITH ANTI-C5 ANTIBODIES FOR TREATMENT OF PAROXYSMAL NOCTURNAL HEMOGLOBINURIA” (Alexion Pharmaceuticals, Inc., priority 2020, published 2023):

Test system: PNH patients with an inadequate response to eculizumab
Test: Phase 2 open-label study of danicopan added to eculizumab: laboratory markers of PNH (Hgb, LDH, reticulocytes, bilirubin)
Assay type: in vivo, human
Settings: for Direct bilirubin, mean / LDH, mean / Reticulocytes, mean / Total bilirubin, mean: all patients N=11
Description: All doses were taken approximately 15-30 minutes after completion of a meal or snack. Dose escalations, to a maximum of 200 mg three times a day, were based on safety and hemoglobin values and permitted at 4-week intervals through week 12 at 50 mg increments. If the patient had not already reached the 200 mg three times daily maximal dose by week 12, escalation was permitted if clinically indicated. […] Patients completing treatment with clinical benefit entered a long-term extension phase.
Descriptive statistics are provided for biochemical, quality-of-life measurements, and transfusion data. Continuous variables are summarized with mean, median, minimum and maximum values. Categorical variables, e.g., transfusion-independent, are summarized with counts and percentages. Missing values were not imputed.

[1] = Patient A, Baseline, before danicopan, on eculizumab 900 mg q14d
[2] = Patient A, Week 12, danicopan 150 mg TID + eculizumab 900 mg q14d
[3] = Patient A, Week 24, danicopan 150 mg TID + eculizumab 900 mg q14d
[4] = Patient B, Baseline, before danicopan, on eculizumab 1200 mg q14d
[5] = Patient B, Week 12, danicopan 100 mg TID + eculizumab 900 mg q14d
[6] = Patient B, Week 24, danicopan 100 mg TID + eculizumab 900 mg q14d
[7] = Patient C, Baseline, before danicopan, on eculizumab 900 mg q14d
[8] = Patient C, Week 12, danicopan 150 mg TID + eculizumab 900 mg q14d
[9] = Patient C, Week 24, danicopan 150 mg TID + eculizumab 900 mg q14d
[10] = Patient D, Baseline, before danicopan, on eculizumab 900 mg q14d
[11] = Patient D, Week 12, danicopan 150 mg TID + eculizumab 900 mg q14d
[12] = Patient D, Week 24, danicopan 150 mg TID + eculizumab 900 mg q14d
[13] = Patient E, Baseline, before danicopan, on eculizumab 1200 mg q14d
[14] = Patient E, Week 12, danicopan 150 mg TID + eculizumab 1200 mg q14d
[15] = Patient E, Week 24, danicopan 150 mg TID + eculizumab 1200 mg q14d
[16] = Patient F, Baseline, before danicopan, on eculizumab 900 mg q14d
[17] = Patient F, Week 12, danicopan 150 mg TID + eculizumab 900 mg q14d
[18] = Patient F, Week 24, danicopan 150 mg TID + eculizumab 900 mg q14d
[19] = Patient G, Baseline, before danicopan, on eculizumab 1500 mg q14d
[20] = Patient G, Week 12, danicopan 100 mg TID + eculizumab 1500 mg q14d
[21] = Patient G, Week 24, danicopan 100 mg TID + eculizumab 1500 mg q14d
[22] = Patient H, Baseline, before danicopan, on eculizumab 900 mg q14d
[23] = Patient H, Week 12, danicopan 200 mg TID + eculizumab 900 mg q14d
[24] = Patient H, Week 24, danicopan 200 mg TID + eculizumab 900 mg q14d
[25] = Patient I, Baseline, before danicopan, on eculizumab 900 mg q14d
[26] = Patient I, Week 12, danicopan 100 mg TID + eculizumab 900 mg q14d
[27] = Patient I, Week 24, danicopan 200 mg TID + eculizumab 900 mg q14d
[28] = Patient J, Baseline, before danicopan, on eculizumab 1200 mg q14d
[29] = Patient J, Week 12, danicopan 100 mg TID + eculizumab 1200 mg q14d
[30] = Patient J, Week 24, danicopan 200 mg TID + eculizumab 1200 mg q14d
[31] = Patient K, Baseline, before danicopan, on eculizumab 900 mg q14d
[32] = Patient K, Week 12, danicopan 100 mg TID + eculizumab 900 mg q14d
[33] = Patient K, Week 24, danicopan 150 mg TID + eculizumab 900 mg q14d
[34] = Baseline, before danicopan, on eculizumab
[35] = Week 24, danicopan 100-200 mg TID + eculizumab

CC(=O)c1nn(CC(=O)N2C[C@H](F)C[C@H]2C(=O)Nc2cccc(Br)n2)c2ccc(-c3cnc(C)nc3)cc12 [Danicopan, danicopan]
Direct bilirubin [1]: 0.44 mg/dL | Hgb [1]: 5.00 g/dL | LDH [1]: 1.7 ×ULN | Reticulocytes [1]: 159 10^9/μL | Total bilirubin [1]: 2.14 mg/dL | Direct bilirubin [2]: 0.33 mg/dL | Hgb [2]: 7.70 g/dL | LDH [2]: 1.2 ×ULN | Reticulocytes [2]: 121 10^9/μL | Total bilirubin [2]: 1.80 mg/dL | Direct bilirubin [3]: 0.48 mg/dL | Hgb [3]: 8.50 g/dL | LDH [3]: 1.1 ×ULN | Reticulocytes [3]: 112 10^9/μL | Total bilirubin [3]: 2.40 mg/dL | Direct bilirubin [4]: 0.29 mg/dL | Hgb [4]: 9.80 g/dL | LDH [4]: 1.0 ×ULN | Reticulocytes [4]: 250 10^9/μL | Total bilirubin [4]: 1.24 mg/dL | Direct bilirubin [5]: 0.18 mg/dL | Hgb [5]: 11.8 g/dL | LDH [5]: 0.8 ×ULN | Reticulocytes [5]: 123 10^9/μL | Total bilirubin [5]: 0.89 mg/dL | Direct bilirubin [6]: 0.20 mg/dL | Hgb [6]: 13.3 g/dL | LDH [6]: 0.9 ×ULN | Reticulocytes [6]: 162 10^9/μL | Total bilirubin [6]: 0.81 mg/dL | Direct bilirubin [7]: 0.24 mg/dL | Hgb [7]: 7.60 g/dL | LDH [7]: 0.8 ×ULN | Reticulocytes [7]: 141 10^9/μL | Total bilirubin [7]: 1.03 mg/dL | Direct bilirubin [8]: 0.16 mg/dL | Hgb [8]: 9.00 g/dL | LDH [8]: 0.9 ×ULN | Reticulocytes [8]: 97.0 10^9/μL | Total bilirubin [8]: 0.580 mg/dL | Direct bilirubin [9]: 0.16 mg/dL | Hgb [9]: 9.70 g/dL | LDH [9]: 0.9 ×ULN | Reticulocytes [9]: 87.0 10^9/μL | Total bilirubin [9]: 0.580 mg/dL | Direct bilirubin [10]: 0.43 mg/dL | Hgb [10]: 10.4 g/dL | LDH [10]: 1.1 ×ULN | Reticulocytes [10]: 191 10^9/μL | Total bilirubin [10]: 2.26 mg/dL | Direct bilirubin [11]: 0.15 mg/dL | Hgb [11]: 11.7 g/dL | LDH [11]: 1.2 ×ULN | Reticulocytes [11]: 56.0 10^9/μL | Total bilirubin [11]: 0.700 mg/dL | Direct bilirubin [12]: 0.17 mg/dL | Hgb [12]: 11.5 g/dL | LDH [12]: 0.9 ×ULN | Reticulocytes [12]: 56.0 10^9/μL | Total bilirubin [12]: 0.650 mg/dL | Direct bilirubin [13]: 0.72 mg/dL | Hgb [13]: 8.60 g/dL | LDH [13]: 1.2 ×ULN | Reticulocytes [13]: 120 10^9/μL | Total bilirubin [13]: 2.35 mg/dL | Direct bilirubin [14]: 0.40 mg/dL | Hgb [14]: 7.60 g/dL | LDH [14]: 1.3 ×ULN | Reticulocytes [14]: 179 10^9/μL | Total bilirubin [14]: 2.22 mg/dL | Direct bilirubin [15]: 0.60 mg/dL | Hgb [15]: 9.40 g/dL | LDH [15]: 1.2 ×ULN | Reticulocytes [15]: 90.0 10^9/μL | Total bilirubin [15]: 1.75 mg/dL | Direct bilirubin [16]: 0.82 mg/dL | Hgb [16]: 7.20 g/dL | LDH [16]: 0.9 ×ULN | Reticulocytes [16]: 405 10^9/μL | Total bilirubin [16]: 3.93 mg/dL | Direct bilirubin [17]: 0.49 mg/dL | Hgb [17]: 9.30 g/dL | LDH [17]: 0.9 ×ULN | Reticulocytes [17]: 243 10^9/μL | Total bilirubin [17]: 1.50 mg/dL | Direct bilirubin [18]: 0.78 mg/dL | Hgb [18]: 10.6 g/dL | LDH [18]: 0.9 ×ULN | Reticulocytes [18]: 253 10^9/μL | Total bilirubin [18]: 2.95 mg/dL | Direct bilirubin [19]: 0.39 mg/dL | Hgb [19]: 7.10 g/dL | LDH [19]: 0.6 ×ULN | Reticulocytes [19]: 262 10^9/μL | Total bilirubin [19]: 1.20 mg/dL | Direct bilirubin [20]: 0.50 mg/dL | Hgb [20]: 9.40 g/dL | LDH [20]: 0.5 ×ULN | Reticulocytes [20]: 200 10^9/μL | Total bilirubin [20]: 1.90 mg/dL | Direct bilirubin [21]: 0.39 mg/dL | Hgb [21]: 9.10 g/dL | LDH [21]: 0.9 ×ULN | Reticulocytes [21]: 239 10^9/μL | Total bilirubin [21]: 1.25 mg/dL | Direct bilirubin [22]: 0.78 mg/dL | Hgb [22]: 7.70 g/dL | LDH [22]: 1.5 ×ULN | Reticulocytes [22]: 238 10^9/μL | Total bilirubin [22]: 2.18 mg/dL | Direct bilirubin [23]: 0.53 mg/dL | Hgb [23]: 7.30 g/dL | LDH [23]: 1.8 ×ULN | Reticulocytes [23]: 206 10^9/μL | Total bilirubin [23]: 2.04 mg/dL | Direct bilirubin [24]: 0.52 mg/dL | Hgb [24]: 7.50 g/dL | LDH [24]: 1.4 ×ULN | Reticulocytes [24]: 169 10^9/μL | Total bilirubin [24]: 1.57 mg/dL | Direct bilirubin [25]: 0.23 mg/dL | Hgb [25]: 7.70 g/dL | LDH [25]: 0.9 ×ULN | Reticulocytes [25]: 200 10^9/μL | Total bilirubin [25]: 0.56 mg/dL | Direct bilirubin [26]: 0.18 mg/dL | Hgb [26]: 10.8 g/dL | LDH [26]: 0.9 ×ULN | Reticulocytes [26]: 110 10^9/μL | Total bilirubin [26]: 0.34 mg/dL | Direct bilirubin [27]: 0.18 mg/dL | Hgb [27]: 11.5 g/dL | LDH [27]: 0.9 ×ULN | Reticulocytes [27]: 96 10^9/μL | Total bilirubin [27]: 0.32 mg/dL | Direct bilirubin [28]: 0.68 mg/dL | Hgb [28]: 7.80 g/dL | LDH [28]: 1.3 ×ULN | Reticulocytes [28]: 258 10^9/μL | Total bilirubin [28]: 3.24 mg/dL | Hgb [29]: 10.2 g/dL | Reticulocytes [29]: 292 10^9/μL | Direct bilirubin [30]: 0.23 mg/dL | Hgb [30]: 11.0 g/dL | LDH [30]: 1.2 ×ULN | Reticulocytes [30]: 152 10^9/μL | Total bilirubin [30]: 1.14 mg/dL | Direct bilirubin [31]: 0.64 mg/dL | Hgb [31]: 8.40 g/dL | LDH [31]: 0.9 ×ULN | Reticulocytes [31]: 188 10^9/μL | Total bilirubin [31]: 3.76 mg/dL | Direct bilirubin [32]: 0.39 mg/dL | Hgb [32]: 9.40 g/dL | LDH [32]: 1.2 ×ULN | Reticulocytes [32]: 88.0 10^9/μL | Total bilirubin [32]: 1.85 mg/dL | Direct bilirubin [33]: 0.31 mg/dL | Hgb [33]: 11.5 g/dL | LDH [33]: 1.1 ×ULN | Reticulocytes [33]: 69.0 10^9/μL | Total bilirubin [33]: 1.41 mg/dL | raise in hemoglobin (addition of danicopan to eculizumab in patients that continued to be anemic): over 2 g/dL | Direct bilirubin, mean [34]: 0.51 mg/dL | LDH, mean [34]: 1.06 ×ULN | Reticulocytes, mean [34]: 219 10^9/μL | Total bilirubin, mean [34]: 2.17 mg/dL | Direct bilirubin, mean [35]: 0.37 mg/dL | LDH, mean [35]: 1.04 ×ULN | Reticulocytes, mean [35]: 135 10^9/μL | Total bilirubin, mean [35]: 1.35 mg/dL | mean increase in Hgb (at 24 Weeks of treatment vs baseline, danicopan added to eculizumab): 2.4 g/dL | mean increase in Hgb (danicopan added to background eculizumab): 2.4 gram | raise in hemoglobin (patient without transfusion history (Patient A), baseline 5 g/dL, at 24-weeks): over 3 g/dL
